Measurements from patent US20180106782A1, “HIGH THROUGHPUT CARDIOTOXICITY SCREENING PLATFORM” (The Board of Trustees of the Leland Stanford Junior …, priority 2016, published 2018).

Tested on: μpatterned hiPSC-CMs
Assay: movement of LifeAct-labeled myofibrils in beating μpatterned hiPSC-CMs (cross-correlation, Ncorr)
Type: cell-based, human
Settings: for aδ (temporal asynchronicity) / d (displacement) / VR (peak velocity of relaxation) / VC (peak velocity of contraction) / aθ (spatial asynchronicity): LifeAct, single cell
Procedure: We fluorescently labeled actin with LifeAct in live hiPSC-CMs to image myofibrils and sarcomeres as described before. (Ribeiro 2015a) For this effect, we incubated hiPSC-CMs with the adenovirus rAV CAG-LifeAct-TagRFP (Ibidi; 1×10^5 IU/mL in cell-culture medium) overnight at 37° C. in a humid 5% CO2 atmosphere. We then washed cells once with PBS at 37° C. and added new medium. We observed actin labeled in sarcomeres after 2 days of adding the adenovirus to the culture medium. To induce contractile changes in hiPSC-CMs, we added drugs known to affect CM contractile machinery to the culture medium. We analyzed the mechanical output of cells after adding drugs. […] We exposed single cells to concentrations of 0.1 μM and then 1 μM of isoproterenol (Sigma, Saint Louis, Mo.) to test how the contractile activity of each cell varied after adding different amounts of isoproterenol to the medium. Omecamtiv mecarbil (Adooq Bioscience, Irvine, Calif.) was also added to the cell culture medium at 10 nM or 0.1 μM to detect different variations in the contractile response of hiPSC-CMs after adding one of these concentrations. We acquired videos of single beating hiPSC-CMs imaged with differential interference contrast microscopy at frame rates higher than 30 fps for a time between 4 and 10 s. We used MATLAB (R2014b version, Mathworks) to convert pixels of each frame to microns. Zeiss files (.czi) contained information on the pixel dimensions and were imported into MATLAB using the Bioformats package. ([…] 2010) We also confirmed the software calibration with calibration slides (Electron Microscopy Sciences). For each video of a beating single cell, we selected a region of interest (ROI) around the borders of the cell and analyzed average displacements within this ROI (FIG. 1B). For this purpose, we selected a baseline frame, within all the frames of the video, which represented the relaxed state of the cell and calculated average displacement within the ROI for the remaining frames relative to the baseline frame. As noted bellow, this procedure was automated. We then calculated displacements from microscopy videos with cross-correlation approaches: digital image correlation (DIC) and particle image velocimetry (PIV) approaches. […] Cross-correlation is done between sub-blocks of the image and the highest correlation indicates the maximum likelihood that blocks match. We tested the following cross-correlation algorithms: PIVIab, ImageJ PIV (Tseng 2012) and Ncorr. PIVIab and Ncorr were written in MATLAB, while ImageJ PIV is a plugin for ImageJ (NIH). Ncorr generally performs better, but uses more computational time. (Blaber 2015) We measured two parameters of asynchronicity of contractile movement within the ROI: spatial asynchronicity (aθ) of contractile movement and temporal asynchronicity (aδ) of contractile movement. Spatial synchronicity occurs when the different regions of the cell move along the same directions and temporal synchronicity occurs when all the regions of the cell move at the same time. To calculate aθ, we first computed the direction of movement (θ) for every movement vector of different regions i inside the ROI (FIG. 1B) at each frame as defined by The second approach performed better for analyzing sarcomere lengths in videos of LifeAct labeled beating cells. This approach was applied to different frames in a video to determine how the different properties measure with traction force microscopy or from cell movement related to sarcomere size, movement and orientation during the contractile cycle. Most of the tested approaches relied on successful skeletonization of each frame, which may not be perfect due to noise or inconsistent illumination. To quantitatively compare different skeletons from different frames in a video, we generated a master skeleton based on the skeletons generated from all frames. […]

CC(C)NCC(O)c1ccc(O)c(O)c1 (stereo not drawn) [isoproterenol]
aδ (temporal asynchronicity) (ISO 0.1 (μM per FIG. 4), no ISO: 0.1): 0.31 s | d (displacement) (ISO 0.1 (μM per FIG. 4), no ISO: 1.22): 1.43 μm | VR (peak velocity of relaxation) (ISO 0.1 (μM per FIG. 4), no ISO: 2.54): 3.45 μm/s | VC (peak velocity of contraction) (ISO 0.1 (μM per FIG. 4), no ISO: 2.63): 4.78 μm/s | aθ (spatial asynchronicity) (ISO 0.1 (μM per FIG. 4), no ISO: 55.4): 19.5 ° | aδ (temporal asynchronicity) (ISO 1 (μM per FIG. 4), no ISO: 0.1): 0.28 s | d (displacement) (ISO 1 (μM per FIG. 4), no ISO: 1.22): 0.71 μm | VR (peak velocity of relaxation) (ISO 1 (μM per FIG. 4), no ISO: 2.54): 2.05 μm/s | VC (peak velocity of contraction) (ISO 1 (μM per FIG. 4), no ISO: 2.63): 2.02 μm/s | aθ (spatial asynchronicity) (ISO 1 (μM per FIG. 4), no ISO: 55.4): 20.8 °

COC(=O)N1CCN(Cc2cccc(NC(=O)Nc3ccc(C)nc3)c2F)CC1 [omecamtiv mecarbil]
acute changes in sarcomere organization and movement (0.1 μM omecamtiv mecarbil, acute, single cell (FIG. 6B)): oscillatory contractions of sarcomeres and overlap between sarcomeres | chronic effects on the organization of myofibrils (0.1 μM omecamtiv mecarbil, chronic, 2 minutes after adding (FIG. 6C)): myofibril damaging | acute values of dmax and br from myofibril movement (0.1 μM omecamtiv mecarbil, single cell (FIG. 6F)): slightly increased | acute VC and VR from myofibril movement (0.1 μM omecamtiv mecarbil, single cell (FIG. 6G)): no considerable acute variations | aδ (temporal asynchronicity) (OM 0.1 μM (FIG. 6), row 'acute', no OM: 0.05): 0.89 s | d (displacement) (OM 0.1 μM (FIG. 6), row 'acute', no OM: 1.03): 0.25 μm | VR (peak velocity of relaxation) (OM 0.1 μM (FIG. 6), row 'acute', no OM: 2.2): 0.51 μm/s | VC (peak velocity of contraction) (OM 0.1 μM (FIG. 6), row 'acute', no OM: 2.25): 0.54 μm/s | aθ (spatial asynchronicity) (OM 0.1 μM (FIG. 6), row 'acute', no OM: 36.3): 40.9 ° | aδ (temporal asynchronicity) (OM 0.1 μM (FIG. 6), row 'chronic', no OM: 0.05): 0.88 s | d (displacement) (OM 0.1 μM (FIG. 6), row 'chronic', no OM: 1.03): 0.93 μm | VR (peak velocity of relaxation) (OM 0.1 μM (FIG. 6), row 'chronic', no OM: 2.2): 1.63 μm/s | VC (peak velocity of contraction) (OM 0.1 μM (FIG. 6), row 'chronic', no OM: 2.25): 2.2 μm/s | aθ (spatial asynchronicity) (OM 0.1 μM (FIG. 6), row 'chronic', no OM: 36.3): 17.1 °
